In US20250263436A1, “BROAD-SPECTRUM ANTIVIRAL DRUG FOR ENTEROVIRUS, AND APPLICATION” (WUHAN INSTITUTE OF VIROLOGY, CHINESE ACADEMY OF SCIENCES, priority 2020, published 2025):
Values joined by “and” are separate entries in the source; they are usually repeats but may differ in a detail not shown here. Equal entries are not always repeated.

What was measured:
EV71 [1] = assay: Inhibition of EV71 in 293T cells (viral RNA, qRT-PCR); format: cell-based, enterovirus 71 (EV71); conditions: anti-EV71 in 293T cells
Method: (§1) (1) Different cells were plated in a 24-well plate.
(§2) (2) When the cells grew to a confluence of 70%-80%, the DMEM medium containing 10% serum was replaced with a DMEM medium containing 2% serum (the DMEM medium containing 2% serum was added in each well at an amount of 0.5 mL), and 5 μL of EV71 virus of 1×10^6 PFU/mL was added to each well.
(§3) (3) After 1 h, different polypeptides (RQ or control TAT) with final concentrations of 0.3125 μM, 0.625 μM, 1.25 μM, 2.5 μM, and 5 μM were added respectively. The group without polypeptide added was used as a control.
(§4) (4) The samples were collected 24 h after the infection of EV71 virus, and RNA was extracted with the total RNA extraction kit.
(§5) (5) The supernatant was discarded, then 350 μL of TRK lysate was added to each well, and the plate was put on a shaker for 5 min.
(§6) (6) 350 μL of 70% ethanol (DEPC) was added to each well, and then the plate was put on a shaker for 5 min.
(§7) (7) The solution in each well was transferred to a RNA extraction column for 1 min of centrifugation at 12000 g.
(§8) (8) The solution obtained in the recovery tube was reloaded on the column again for 1 min of centrifugation at 12000 g.
(9) RNA washing buffer 1 was added in the column for 30 s of centrifugation at 12000 g. […]
(§9) (14) 2 μL of RNA sample was subjected to a fluorescence quantitative experiment using the one step qRT-PCR kit.

[2] = Toxicity assay in Huh7 cells (CCK-8); format: cell-based; conditions: human, Huh7 cells
Method: (§10) (1) Different cells were plated in a 96-well plate at 100 μL per well.
(§11) (2) When the cells grew to a confluence of 70%-80%, the DMEM medium containing 10% serum was replaced with a DMEM medium containing 2% serum, and a certain concentration gradient of polypeptide RQ was added, so that the final concentrations of the polypeptide in the wells were 0.073242 μM, 0.146484 μM, 0.292969 μM, 0.585938 μM, 1.171875 μM, 2.34375 μM, 4.6875 μM, 9.375 μM, 18.75 μM, 37.5 μM, 75 μM, 150 μM, and 300 μM, respectively.
(§12) (3) The samples were collected 24 h after the addition of the polypeptide, and then 10 μL of live cell detection reagent CCK-8 was added to each well and mixed well.
(§13) (4) The plate was placed at 37° C. for 2 h.
(§14) (5) The absorbance value at OD450 was detected by a microplate reader.

Huh7 cells = assay: Toxicity assay in Huh7 cells (CCK-8); format: cell-based; conditions: Table 14, 24 h
Method: as §10, §11, §12, §13, §14

[3] = Cytotoxicity of polypeptides in Vero cells (CCK-8); format: cell-based; conditions: Vero cells, 24 h
Method: (§15) Therefore, this standard was testified by cytotoxicity assay, and the cells without any treatment were used as a control group.
(§16) (1) Vero cells were plated in a 96-well plate at 100 μL per well.
(§17) (2) When the cells grew to a confluence of 70%-80%, the DMEM medium containing 10% serum was replaced with a DMEM medium containing 2% serum, and a certain concentration gradient of polypeptide RQ or LQ or SQ was added, so that the final concentrations of the polypeptide in the wells were 0.073242 μM, 0.146484 μM, 0.292969 μM, 0.585938 μM, 1.171875 μM, 2.34375 μM, 4.6875 μM, 9.375 μM, 18.75 μM, 37.5 μM, 75 μM and 150 μM, respectively.
as §12, §13, §14
(§18) The CC50 of each polypeptide was calculated taking the cell viability of untreated cells as 100%.

Vero cells = assay: Cytotoxicity of polypeptides in Vero cells (CCK-8); format: cell-based; conditions: Vero cells, 24 h
Method: as §15, §16, §17, §12, §13, §14, §18

EV71 [4] = assay: Inhibition of EV71 in RD cells (viral RNA, qRT-PCR); format: cell-based, enterovirus 71 (EV71); conditions: anti-EV71 in RD cells
Method: as §1, §2, §3, §4, §5, §6, §7, §8
(9) RNA washing buffer 1 was added in the column for 30 s of centrifugation at 12000 g.
(10) RNA washing buffer 2 was added in the column for 1 min of centrifugation at 12000 g.
(11) Step (10) was repeated.
(12) The column alone was centrifuged at 12000 g for 2 min to completely remove the residual RNA washing buffer.
(13) 50 μL of DEPC water was added to the column for 2 min of centrifugation at 12000 g.
as §9
(3) After 1 h, different polypeptides (RQ or control TAT) with final concentrations of 0.3125 μM, 0.625 μM, 1.25 μM, 2.5 μM and 5 μM were added respectively. The group without polypeptide added was used as a control.

Work on `CC[C@H](C)[C@H](NC(=O)[C@H](C)NC(=O)[C@H](CO)NC(=O)[C@H](CCCNC(=N)N)NC(=O)[C@H](CC(N)=O)NC(=O)[C@H](CC(N)=O)NC(=O)[C@H](Cc1ccc(O)cc1)NC(=O)[C@H](CCC(=O)O)NC(=O)[C@H](CCCNC(=N)N)NC(=O)CNC(=O)[C@H](CO)NC(=O)CNC(=O)[C@H](CCCNC(=N)N)NC(=O)[C@H](CCCNC(=N)N)NC(=O)[C@H](CCCNC(=N)N)NC(=O)[C@H](CCC(N)=O)NC(=O)[C@H](CCCNC(=N)N)NC(=O)[C@H](CCCNC(=N)N)NC(=O)[C@H](CCCCN)NC(=O)[C@H](CCCCN)NC(=O)[C@H](CCCNC(=N)N)NC(=O)CNC(=O)[C@@H](N)Cc1ccc(O)cc1)C(=O)NCC(=O)N[C@@H](CC(N)=O)C(=O)N[C@H](C(=O)N[C@H](C(=O)N[C@@H](CCC(=O)O)C(=O)N[C@@H](C)C(=O)N[C@@H](CC(C)C)C(=O)N[C@@H](Cc1ccccc1)C(=O)N[C@@H](CCC(N)=O)C(=O)O)[C@@H](C)CC)[C@@H](C)O` [RQ] yielded an IC50 (EV71 [1]) of 3000 nM, a viability at 24 h, 0.073242 µM ([2]; Table 14, RQ 0.073242 μM, 24 h, read-out: Viability of Huh7 cell (%)) of 113% and a viability at 24 h, 0.146484 µM ([2]; Table 14, RQ 0.146484 μM, 24 h, read-out: Viability of Huh7 cell (%)) of 111%. It also gave a viability at 24 h, 0.292969 µM ([2]; Table 14, RQ 0.292969 μM, 24 h, read-out: Viability of Huh7 cell (%)) of 111%, a viability at 24 h, 0.585938 µM ([2]; Table 14, RQ 0.585938 μM, 24 h, read-out: Viability of Huh7 cell (%)) of 101% and a viability at 24 h, 1.17188 µM ([2]; Table 14, RQ 1.171875 μM, 24 h, read-out: Viability of Huh7 cell (%)) of 104%. For the same compound, the viability at 24 h, 2.34375 µM ([2]; Table 14, RQ 2.34375 μM, 24 h, read-out: Viability of Huh7 cell (%)) was 98.7%, the viability at 24 h, 4.6875 µM ([2]; Table 14, RQ 4.6875 μM, 24 h, read-out: Viability of Huh7 cell (%)) was 98% and the viability at 24 h, 9.375 µM ([2]; Table 14, RQ 9.375 μM, 24 h, read-out: Viability of Huh7 cell (%)) was 103%. The viability at 24 h, 18.75 µM ([2]; Table 14, RQ 18.75 μM, 24 h, read-out: Viability of Huh7 cell (%)) was 101%, the viability at 24 h, 37.5 µM ([2]; Table 14, RQ 37.5 μM, 24 h, read-out: Viability of Huh7 cell (%)) was 95% and the viability at 24 h, 75 µM ([2]; Table 14, RQ 75 μM, 24 h, read-out: Viability of Huh7 cell (%)) was 90.9%. For the same compound, the viability at 24 h, 150 µM ([2]; Table 14, RQ 150 μM, 24 h, read-out: Viability of Huh7 cell (%)) was 65.8%, the CC50 at 24 h ([2]; Table 1 (Huh and 293T cells)) was > 300000 nM and the “Viability of Huh7 cell (%)” value (Huh7 cells; RQ 0.073242 μM) was 113.9801% and 116.7518%. For the same compound, the “Viability of Huh7 cell (%)” value (Huh7 cells; RQ 0.146484 μM) was 106.6132% and 101.8721%, the “Viability of Huh7 cell (%)” value (Huh7 cells; RQ 0.292969 μM) was 104.4979% and 102.018% and the “Viability of Huh7 cell (%)” value (Huh7 cells; RQ 0.585938 μM) was 100.7051% and 101.5074%. The “Viability of Huh7 cell (%)” value (Huh7 cells; RQ 1.171875 μM) was 97.2% and 99.03%, the “Viability of Huh7 cell (%)” value (Huh7 cells; RQ 2.34375 μM) was 100.1945% and 96.04% and the “Viability of Huh7 cell (%)” value (Huh7 cells; RQ 4.6875 μM) was 103.5497% and 101.2886%. For the same compound, the “Viability of Huh7 cell (%)” value (Huh7 cells; RQ 9.375 μM) was 101.4345% and 97.71%, the “Viability of Huh7 cell (%)” value (Huh7 cells; RQ 18.75 μM) was 93.41% and 94.29% and the “Viability of Huh7 cell (%)” value (Huh7 cells; RQ 37.5 μM) was 97.06% and 92.03%. The “Viability of Huh7 cell (%)” value (Huh7 cells; RQ 75 μM) was 93.27% and 88.09%, the “Viability of Huh7 cell (%)” value (Huh7 cells; RQ 150 μM) was 67.74% and 51.47% and the CC50 at 24 h ([3]; African green monkey, CCK-8) was > 150000 nM. It also gave a viability at 24 h, 0.073242 µM ([3]; polypeptide 0.073242 μM, read-out: Cell viability (%)) of 101%, a viability at 24 h, 0.146484 µM ([3]; polypeptide 0.146484 μM, read-out: Cell viability (%)) of 93.8% and a viability at 24 h, 0.292969 µM ([3]; polypeptide 0.292969 μM, read-out: Cell viability (%)) of 92.7%. The viability at 24 h, 0.585938 µM ([3]; polypeptide 0.585938 μM, read-out: Cell viability (%)) was 92.2%, the viability at 24 h, 1.17188 µM ([3]; polypeptide 1.171875 μM, read-out: Cell viability (%)) was 116% and the viability at 24 h, 2.34375 µM ([3]; polypeptide 2.34375 μM, read-out: Cell viability (%)) was 116%. The viability at 24 h, 4.6875 µM ([3]; polypeptide 4.6875 μM, read-out: Cell viability (%)) was 113%, the viability at 24 h, 9.375 µM ([3]; polypeptide 9.375 μM, read-out: Cell viability (%)) was 118% and the viability at 24 h, 18.75 µM ([3]; polypeptide 18.75 μM, read-out: Cell viability (%)) was 111%. It also gave a viability at 24 h, 37.5 µM ([3]; polypeptide 37.5 μM, read-out: Cell viability (%)) of 106%, a viability at 24 h, 75 µM ([3]; polypeptide 75 μM, read-out: Cell viability (%)) of 110% and a viability at 24 h, 150 µM ([3]; polypeptide 150 μM, read-out: Cell viability (%)) of 108%. For the same compound, the “Cell viability (%)” value (Vero cells; polypeptide 0.073242 μM) was 110.2362% and 105.9618%, the “Cell viability (%)” value (Vero cells; polypeptide 0.146484 μM) was 99.1% and 98.99% and the “Cell viability (%)” value (Vero cells; polypeptide 0.292969 μM) was 106.7492%. For the same compound, the “Cell viability (%)” value (Vero cells; polypeptide 0.585938 μM) was 91.56% and 90.78%, the “Cell viability (%)” value (Vero cells; polypeptide 1.171875 μM) was 115.2981% and 115.5231% and the “Cell viability (%)” value (Vero cells; polypeptide 2.34375 μM) was 111.0236% and 119.1226%. The “Cell viability (%)” value (Vero cells; polypeptide 4.6875 μM) was 109.7863% and 118.7852%, the “Cell viability (%)” value (Vero cells; polypeptide 9.375 μM) was 109.3363% and 99.1% and the “Cell viability (%)” value (Vero cells; polypeptide 18.75 μM) was 115.4106% and 105.7368%. The “Cell viability (%)” value (Vero cells; polypeptide 37.5 μM) was 108.5489%, the “Cell viability (%)” value (Vero cells; polypeptide 75 μM) was 127.5591% and 120.5849% and the “Cell viability (%)” value (Vero cells; polypeptide 150 μM) was 103.5996% and 100.1125%. It also gave an IC50 (EV71 [4]) of 1350 nM.
